{"source": "BindingDB's records for doi:10.1021/jm070166b", "about": "(Merck Research Laboratories, 2007)", "experiment": "Antagonist activity against human CCR2 receptor in human monocytes assessed as inhibition of chemotaxis", "data": [{"smiles": "C[C@H]1CN([C@@H]2CC[C@H](C(=O)NCc3cc(C(F)(F)F)cc(C(F)(F)F)c3)C2)CC[C@@]12C=Cc1ccccc12", "note": "[(1S,3R)-N-{[3,5-bis(trifluoromethyl)phenyl]methyl}-3-[(1R,5'R)-5'-methylspiro[indene-1,4'-piperidine]-1'-yl]cyclopentane-1-carboxamide]", "values": [{"measurement": "IC50", "result": 57, "unit": "nM"}]}]}
